Assay results reported in patent US9198915B2, “Methods involving aldose reductase inhibitors” (The Board of Regents of The University of Texas System, priority 2007, dated 2015).

Tested on: IL-6, IL-8 and Cox-2 mRNA
Experiment: RW-induced IL-6, IL-8 and Cox-2 mRNA in SAEC (RT-PCR)
Type: cell-based, human
Conditions: RW 50 μg/ml, 6 h
Description: The SAECs were grown in 6-well plates at a density of approximately 3.0×10^5 cells/well. After approximately 80% confluence, cells were serum-starved in the presence or absence of sorbinil or zopolrestat (20 μM) for 24 h and then stimulated with 50 μg/ml RW for 6 h. Total RNA from SAECs was isolated by using RNeasy kit (Qiagen) as per supplier's instructions. Aliquots of RNA (0.5-1.0 μg) isolated from each sample were reverse transcribed with Omniscript and Sensiscript reverse transcriptase one-step RT-PCR system with HotStar Taq DNApolymerase (Qiagen) at 55° C. for 30 min followed by PCR amplification. The oligonucleotide primer sequences were as follows: 5′-ATGAACTCCT TCTCCACAAGCGC-3′ (SEQ ID NO:3) (sense) and 5′-[…]-3′ (SEQ TD NO:4) (antisense) for IL-6; 5′-[…]-3′ (SEQ ID NO:5) (sense) and 5′-TCT […]-3′ (SEQ ID NO:6) (antisense) for IL-8; 5 ‘-TGAAACCCACTCCA AACACAG-3’ (SEQ ID NO:7) (sense) and 5′-[…]-3′ (SEQ ID NO:8) (antisense) for Cox-2; and 5′-[…]-3′ (SEQ ID NO:9) (sense) and 5′-CGTC […]-3′ (SEQ ID NO:10) (antisense) for β-actin. PCR was carried out in a PCR Sprint thermal cycler (Thermo electron corporation, Milford, Mass.) under the following conditions: initial denaturation at 95° C. for 15 min followed by 35 cycles of 94° C. 1 min, 62° C. 1 min, 72° C. 1 min, and then 72° C. 10 min for final extension. […]

O=C(O)Cc1nn(Cc2nc3cc(C(F)(F)F)ccc3s2)c(=O)c2ccccc12 [zopolrestat]
prevention of RW-induced increase of COX-2 mRNA levels: > 60%
prevention of RW-induced increase of IL-6 and IL-8 mRNA levels: > 70%
